This is an account of results in ChEMBL document CHEMBL4680302, “Biologic-like In Vivo Efficacy with Small Molecule Inhibitors of TNFα Identified Using Scaffold Hopping and Structure-Based Drug Design Approaches” (J Med Chem, 2020).

Series [1] can be described thus: Metabolic stability in mouse liver microsomes assessed as parent compound remaining after 10 mins. In kind it is ADME, Microsome. As to conditions: read-out: Stabilty.
Series [2] in a line: Terminal drug exposure in anticollagen antibody-induced arthritis BALB/c mouse model at 10 mg/kg, po BID followed by LPS stimulation after 6 hrs measured on day 12. Type of series: ADME, organism-based. The conditions noted are these: in vivo, time 12 day, read-out: Drug uptake.
Series [3] is described as follows: Selectivity ratio of drug exposure in anticollagen antibody-induced arthritis BALB/c mouse model at 2 mg/kg, po BID for 12 days to IC50 for inhibition of human TNFalpha expressed in HEK-Blue-CD40L cells assessed as inhibition of NFkappaB activation by quanti-blue based SEAP assay.

In the case of `Cc1nc2cc(F)c(-c3cnc(C(C)(C)O)nc3)nc2c(N[C@H](C)c2cc(C#N)ccc2F)c1Cl`, the remaining at 10 min in series [1] came to 86%. Also, in series [2], the concentration at 288 h worked out at 1130 nM. Also, the Ratio in series [3] worked out at 1.
